Reference: patent US20140348819A1, “Methods of Treating Cancer” (Dana-Farber Cancer Institute, Inc., priority 2011, published 2014)

Tested on: six V600E BRAF melanoma cell lines
Assay: Screening of recombinant RTK ligands for ability to confer resistance to BRAFi (PLX4720) or MEKi (PD184352) (Table 4)
Assay type: cell-based, human
Parameters: ability of recombinant RTK ligand to confer resistance / ability of recombinant RTK ligand to confer resistance (screening value): scale not given here
Experimental: HGF is the only one that can substantially confer drug resistance to the cell lines.
The complexity of the tumor microenvironment is much greater than an in vitro co-culture system. Therefore, the inventors explored whether the activation of other RTKs could result in a similar resistance as that observed with the activation of MET. To this end, six V600E BRAF melanoma cell lines were tested for their resistance to either BRAFi (PLX4720) or MEKi (PD184352) after the addition of 22 RTK ligands that have the potential of activating almost all known RTKs. […] The activation of a selected subset of these RTKs was confirmed by western blotting and by high throughput tyrosine kinase phosphorylation profiling.

NGF
ability of recombinant RTK ligand to confer resistance (A2058, PD184352 - 1 uM, ligand 0.4 ng/ml): 0.98 | ability of recombinant RTK ligand to confer resistance (A2058, PD184352 - 1 uM, ligand 1.6 ng/ml): 0.95 | ability of recombinant RTK ligand to confer resistance (A2058, PD184352 - 1 uM, ligand 6.25 ng/ml): 1.09 | ability of recombinant RTK ligand to confer resistance (A2058, PD184352 - 1 uM, ligand 25 ng/ml): 0.99 | ability of recombinant RTK ligand to confer resistance (A2058, PD184352 - 1 uM, ligand 100 ng/ml): 0.99 | ability of recombinant RTK ligand to confer resistance (A2058, PLX4720 - 2 uM, ligand 0.4 ng/ml): 1.04 | ability of recombinant RTK ligand to confer resistance (A2058, PLX4720 - 2 uM, ligand 1.6 ng/ml): 1.02 | ability of recombinant RTK ligand to confer resistance (A2058, PLX4720 - 2 uM, ligand 6.25 ng/ml): 1.06 | ability of recombinant RTK ligand to confer resistance (A2058, PLX4720 - 2 uM, ligand 25 ng/ml): 1.07 | ability of recombinant RTK ligand to confer resistance (A2058, PLX4720 - 2 uM, ligand 100 ng/ml): 0.98 | ability of recombinant RTK ligand to confer resistance (C32, PD184352 - 1 uM, ligand 0.4 ng/ml): 1.00 | ability of recombinant RTK ligand to confer resistance (C32, PD184352 - 1 uM, ligand 1.6 ng/ml): 1.07 | ability of recombinant RTK ligand to confer resistance (C32, PD184352 - 1 uM, ligand 6.25 ng/ml): 1.07 | ability of recombinant RTK ligand to confer resistance (C32, PD184352 - 1 uM, ligand 25 ng/ml): 0.98 | ability of recombinant RTK ligand to confer resistance (C32, PD184352 - 1 uM, ligand 100 ng/ml): 1.03 | ability of recombinant RTK ligand to confer resistance (C32, PLX4720 - 2 uM, ligand 0.4 ng/ml): 0.98 | ability of recombinant RTK ligand to confer resistance (C32, PLX4720 - 2 uM, ligand 1.6 ng/ml): 0.98 | ability of recombinant RTK ligand to confer resistance (C32, PLX4720 - 2 uM, ligand 6.25 ng/ml): 1.03 | ability of recombinant RTK ligand to confer resistance (C32, PLX4720 - 2 uM, ligand 25 ng/ml): 0.97 | ability of recombinant RTK ligand to confer resistance (C32, PLX4720 - 2 uM, ligand 100 ng/ml): 0.87 | ability of recombinant RTK ligand to confer resistance (Colo 829, PD184352 - 1 uM, ligand 0.4 ng/ml): 1.04 | ability of recombinant RTK ligand to confer resistance (Colo 829, PD184352 - 1 uM, ligand 1.6 ng/ml): 1.03 | ability of recombinant RTK ligand to confer resistance (Colo 829, PD184352 - 1 uM, ligand 6.25 ng/ml): 1.04 | ability of recombinant RTK ligand to confer resistance (Colo 829, PD184352 - 1 uM, ligand 25 ng/ml): 0.94 | ability of recombinant RTK ligand to confer resistance (Colo 829, PD184352 - 1 uM, ligand 100 ng/ml): 1.02 | ability of recombinant RTK ligand to confer resistance (Colo 829, PLX4720 - 2 uM, ligand 0.4 ng/ml): 0.96 | ability of recombinant RTK ligand to confer resistance (Colo 829, PLX4720 - 2 uM, ligand 1.6 ng/ml): 0.96 | ability of recombinant RTK ligand to confer resistance (Colo 829, PLX4720 - 2 uM, ligand 6.25 ng/ml): 1.02 | ability of recombinant RTK ligand to confer resistance (Colo 829, PLX4720 - 2 uM, ligand 25 ng/ml): 0.96 | ability of recombinant RTK ligand to confer resistance (Colo 829, PLX4720 - 2 uM, ligand 100 ng/ml): 1.03 | ability of recombinant RTK ligand to confer resistance (G-361, PD184352 - 1 uM, ligand 0.4 ng/ml): 1.09 | ability of recombinant RTK ligand to confer resistance (G-361, PD184352 - 1 uM, ligand 1.6 ng/ml): 0.78 | ability of recombinant RTK ligand to confer resistance (G-361, PD184352 - 1 uM, ligand 6.25 ng/ml): 0.97 | ability of recombinant RTK ligand to confer resistance (G-361, PD184352 - 1 uM, ligand 25 ng/ml): 0.85 | ability of recombinant RTK ligand to confer resistance (G-361, PD184352 - 1 uM, ligand 100 ng/ml): 0.94 | ability of recombinant RTK ligand to confer resistance (G-361, PLX4720 - 2 uM, ligand 0.4 ng/ml): 1.10 | ability of recombinant RTK ligand to confer resistance (G-361, PLX4720 - 2 uM, ligand 1.6 ng/ml): 0.87 | ability of recombinant RTK ligand to confer resistance (G-361, PLX4720 - 2 uM, ligand 6.25 ng/ml): 0.91 | ability of recombinant RTK ligand to confer resistance (G-361, PLX4720 - 2 uM, ligand 25 ng/ml): 0.92 | ability of recombinant RTK ligand to confer resistance (G-361, PLX4720 - 2 uM, ligand 100 ng/ml): 0.94 | ability of recombinant RTK ligand to confer resistance (SK-MEL-5, PD184352 - 1 uM, ligand 0.4 ng/ml): 1.03 | ability of recombinant RTK ligand to confer resistance (SK-MEL-5, PD184352 - 1 uM, ligand 1.6 ng/ml): 1.04 | ability of recombinant RTK ligand to confer resistance (SK-MEL-5, PD184352 - 1 uM, ligand 6.25 ng/ml): 0.96 | ability of recombinant RTK ligand to confer resistance (SK-MEL-5, PD184352 - 1 uM, ligand 25 ng/ml): 1.07 | ability of recombinant RTK ligand to confer resistance (SK-MEL-5, PD184352 - 1 uM, ligand 100 ng/ml): 1.09 | ability of recombinant RTK ligand to confer resistance (SK-MEL-5, PLX4720 - 2 uM, ligand 0.4 ng/ml): 1.00 | ability of recombinant RTK ligand to confer resistance (SK-MEL-5, PLX4720 - 2 uM, ligand 1.6 ng/ml): 1.03 | ability of recombinant RTK ligand to confer resistance (SK-MEL-5, PLX4720 - 2 uM, ligand 6.25 ng/ml): 0.85 | ability of recombinant RTK ligand to confer resistance (SK-MEL-5, PLX4720 - 2 uM, ligand 25 ng/ml): 0.93 | ability of recombinant RTK ligand to confer resistance (SK-MEL-5, PLX4720 - 2 uM, ligand 100 ng/ml): 0.92 | ability of recombinant RTK ligand to confer resistance (SK-MEL-28, PD184352 - 1 uM, ligand 0.4 ng/ml): 0.91 | ability of recombinant RTK ligand to confer resistance (SK-MEL-28, PD184352 - 1 uM, ligand 1.6 ng/ml): 0.92 | ability of recombinant RTK ligand to confer resistance (SK-MEL-28, PD184352 - 1 uM, ligand 6.25 ng/ml): 0.99 | ability of recombinant RTK ligand to confer resistance (SK-MEL-28, PD184352 - 1 uM, ligand 25 ng/ml): 0.96 | ability of recombinant RTK ligand to confer resistance (SK-MEL-28, PD184352 - 1 uM, ligand 100 ng/ml): 1.08 | ability of recombinant RTK ligand to confer resistance (SK-MEL-28, PLX4720 - 2 uM, ligand 0.4 ng/ml): 0.89 | ability of recombinant RTK ligand to confer resistance (SK-MEL-28, PLX4720 - 2 uM, ligand 1.6 ng/ml): 0.97 | ability of recombinant RTK ligand to confer resistance (SK-MEL-28, PLX4720 - 2 uM, ligand 6.25 ng/ml): 1.05 | ability of recombinant RTK ligand to confer resistance (SK-MEL-28, PLX4720 - 2 uM, ligand 25 ng/ml): 1.00 | ability of recombinant RTK ligand to confer resistance (SK-MEL-28, PLX4720 - 2 uM, ligand 100 ng/ml): 1.12
